Measured values published in patent US20080221074A1, “Drug Screen and Treatment Method” (priority 2006, published 2008).
pIC50: −log10 of the molar value. Like-named read-outs stand apart in the source and are kept apart here.

Tests used:
[1] = system: NF-κB; experiment: inhibition of NF-κB activation in NF-κB-bla THP-1 cells after LPS stimulation; format: cell-based, human
Source text: Inhibition of NF-κB in vitro. […] Activation of NF-κB increases expression of a number of genes that mediate inflammation. This protocol used human THP-1 cells, which are human mononuclear blood cells with a monocyte phenotype. The cell line, referred to as NF-κB-bla THP-1, contained a β-lactamase reporter gene under the control of the NF-kB response element (Invitrogen, CellSensor™, product No. K1176). In this cell line, the β-lactamase reporter gene is stably integrated in the THP-1 cells. This cell line was used to detect agonists or antagonists of the NF-κB signaling pathway. These NF-κB-bla THP-1 cells respond to the presence of tumor necrosis factor alpha (TNFα) or bacterial lipopolysaccharide (LPS) by increased expression of the β-lactamase reporter gene. The level of β-lactamase enzyme activity was measured by fluorescence resonance energy transfer ratiometric detection. TNFα and LPS are both potent inflammation-inducing agents that activate NF-κB in THP1 cells. In this assay, compounds that decrease NF-κB activity, and thus β-lactamase, in the presence of TNFα or LPS are exerting an anti-inflammation activity.
The NF-κB-bla THP-1 cells were maintained by passaging or feeding as needed. […] The cells were plated at 20,000 cells/well in a 384-well Black-wall, clear bottom assay plates (Costar#3712-TC low fluorescence background plates) approximately 24 hours before adding either TNFα at 10 ng/mL or LPS at 0.2 ng/mL to activate NF-κB.
The assays were usually conducted 2-4 times for each compound and the values shown below are averages for each compound.

[2] = system: EAE; experiment: PLP-induced EAE, treatment from clinical onset; format: in vivo, female SJL mice; settings: for course of EAE compared to vehicle-treated mice / mean cumulative score, treatment period: 0.1 mg q.d. po from clinical onset; for mean cumulative score, treatment period: day 1 to 30; for mean cumulative score, follow-up period: day 31 to day 54, post treatment
Procedure: The protocol for conducting the EAE animal model was described in (D. Auci et. al., Ann. NY. Acad. Sci. USA, 1051:730-42, 2005). Female SJL mice (6-8 week old, average body weight of 25 g) obtained from Charles-River were kept under standard laboratory conditions (non specific pathogen germ free) with ad libitum food and water and were allowed to adapt one week to their environment before commencing the study. […] EAA was induced with 200 μL of a 1:1 emulsion of 75 μg proteolipid protein (PLP) and 6 mg/mL Mycobacterium tuberculosis H37RA in complete Freund's adjuvant (CFA). The 200 μL injection was divided among four sites that drained into the auxiliary and inguinal lymphnodes. Pertussis toxin was used as a co-adjuvant and was administered i.p. at 200 ng/mouse on day zero and day two post immunization. Groups were treated with 0.1 mg of compound in 100 μL vehicle, or with vehicle alone, q.d. po (oral gavage) starting at clinical onset of disease and continuing through to day 30 post immunization. […] Clinical grading was carried out by an observer unaware of the treatment: 0=no illness, 1=flaccid tail, 2=moderate paraparesis, 3=severe paraparesis, 4=moribund state, 5=death.

[3] = system: human MG-63 osteosarcoma cell line; experiment: reversal of dexamethasone effects in MG-63 osteoblasts; format: cell-based; settings: for reversal of the decrease in osteoprotegerin synthesis: 30 nM dexamethasone, compound concentration stated with each value (17α-ethynyl triol: 1 nM)
[4] = system: carrageenan-λ induced pleurisy; experiment: carrageenan-λ induced lung (pleural cavity) inflammation; format: in vivo, CD1 male mice; settings: exudate 4 h after
Source text: Treatment of lung inflammation. Three compounds, 3β,16α-dihydroxy-17-oxoandrostane, 3α,16β,17β-trihydroxyandrostane and 3α,16α,17α-trihydroxyandrostane were used to treat inflammation in mice essentially as described (D. Auci et al., Ann. New York Acad. Sci. 1051:730-742 2005). Five to 8 week old CD1 male mice (Charles River, Calco, Italy) were used for the study. The animals were housed in a controlled environment and provided with standard rodent chow and water. Animal care was in compliance with applicable regulations on protection of animals. Mice were allocated into one of the following groups: (1) mice treated with 2% carrageenan-k in saline (carrageenan-λ treated control group), (2) mice treated with 0.1 mg, 0.01 mg or 0.001 mg 3β,16α-dihydroxy-17-oxoandrostane by subcutaneous (s.c.) injection 24 h and 1 h before carrageenan-λ administration, (3) mice treated with 0.1 mg, 0.01 mg or 0.001 mg of 3α,16α,17α-trihydroxyandrostane by s.c. injection 24 and 1 h before carrageenan; (4) mice treated with 0.1 mg, 0.01 mg or 0.001 mg […],16β,17β-trihydroxyandrostane by s.c. injection 24 h and 1 h before carrageenan-λ administration; (5) mice treated with vehicle (0.1% carboxymethylcellulose, 0.9% saline, 2% tween 80, 0.05% phenol) s.c. 24 h and 1 h before carrageenan-λ administration; (6) mice treated with rabbit anti-mouse polyclonal anti-TNF-α antibody (200 μg) given as an intraperitoneal bolus 24 h and 1 h before carrageenan-λ administration (positive control group); and (7) sham-operated mice that were not treated with carrageenan-λ. Each group consisted of 10 mice. All treatments were given in a final volume of 100 μL. Lung (pleural cavity) inflammation was induced as follows. The mice were anaesthetised with isoflurane and a skin incision was made at the level of the left sixth intercostal space. The underlying muscle was dissected and either 0.1 mL saline (control) or 0.1 mL saline containing 2% λ-carrageenan was injected into the pleural cavity. The carrageenan-λ is a potent inducer of inflammation, which is manifested in this protocol by accumulation of fluid and neutrophils in the pleural cavity. The incision was closed with a suture and the animals were allowed to recover.
At 4 h after the injection of carrageenan-λ, the animals were euthanized by exposure to CO2. The chest was carefully opened and the pleural cavity rinsed with 1 mL of saline solution containing heparin (5 U/mL) and indomethacin (10 μg/mL). The exudate and washing solution were removed by aspiration and the total volume measured. Any exudate contaminated with blood was discarded. The amount of exudate was calculated by subtracting the injected 1 mL volume from the total pleural cavity volume that was recovered. The neutrophils in the exudate were suspended in phosphate-buffer saline and counted with an optical microscope in a Burker's chamber after Trypan Blue staining. The results were analysed by one-way ANOVA followed by a Bonferroni post-hoc test for multiple comparisons. A p-value less than 0.05 was considered significant. For statistical analysis each group was compared to the control group of mice that were challenged with carrageenan-k and received no other treatment.
The table below describes the number of neutrophils from the treated animal groups relative to untreated control animals that were exposed to carrageenan-λ, but not treated with anything else (negative control group). The neutrophil number for the negative control group was set at 100% and other groups were compared to this.

[5] = LPS stimulation, 50% of the compound's maximum inhibition, averages, read-out: IC50

C[C@]12CCCCC1=CC[C@@H]1[C@@H]2CC[C@]2(C)C(=O)[C@H](F)C[C@@H]12 [16α-fluoroandrost-5-ene-17-one] was tested, and the pIC50 ([1]; Homo sapiens, THP-1) was 10.52.
In the case of C[C@]12CC[C@H](O)CC1=CC[C@@H]1[C@@H]2CC[C@@]2(C)[C@H]1CC[C@@]2(O)C(F)(F)F [17α-trifluoromethylandrost-5-ene-3β,17β-diol], the “course of EAE compared to vehicle-treated mice” value [2] was “significantly improved course of EAE”.
In the case of C[C@]12CC[C@H]3[C@@H](CCC4=C[C@H](O)CC[C@@]43C)[C@@H]1CC[C@@H]2O [3α,17β-dihydroxyandrost-4-ene], the “dexamethasone induced 11β-HSD mRNA” value ([3]; similar protocols) was “decrease” and the “dexamethasone-induced suppression of IL-8 and IL-6” value ([3]; similar protocols) was “statistically significant reversal”.
With C[C@]12CC[C@H](O)C[C@@H]1CC[C@@H]1[C@@H]2CC[C@]2(C)C(=O)[C@@H](Br)C[C@@H]12 [16β-bromoepiandrosterone] the “maximum inhibition of NF-κB” value [1] was 100% and the pIC50 [1, 5] was 6.22.
In the case of 3α,17α-ethynylandrostane-3α/β,17β-diol, the pIC50 [1, 5] was 9.70.
With CC12CCC(O)CC1=CC(O)C1C2CCC2(C)C1CCC2(O)C(F)(F)F (stereo not drawn) [3β,7β,17β-trihydroxy-17α-trifluoromethylandrost-5-ene] the “reversal of the decrease in osteoprotegerin synthesis” value (shortened to “reversal of the decrease”) [3] was “normal or basal osteoprotegerin levels at 1 μM compound”.
For C[C@]12CC[C@H]3[C@@H](CC=C4C[C@](O)(C(F)(F)C(F)(F)F)CC[C@@]43C)[C@@H]1CC[C@@H]2O [3α-pentafluoroethylandrost-5-ene-3β,17β-diol], the “maximum inhibition of NF-κB” value [1] was 50%.
C#C[C@]1(O)CC[C@H]2[C@@H]3CCC4=CC(=O)CC[C@]4(C)[C@H]3CC[C@@]21C [17α-ethynylandrost-4-ene-3-one-17β-ol] was tested, and the “maximum inhibition of NF-κB” value [1] was 80%.
For C[C@]12CC[C@H]3[C@@H](CC=C4C[C@](O)(C(F)(F)F)CC[C@@]43C)[C@@H]1CC[C@@H]2O [3α-trifluoromethylandrost-5-ene-3β,17β-diol], the “course of EAE compared to vehicle-treated mice” value [2] was “significantly improved course of EAE”, the “mean cumulative score, treatment period” value [2] was 11.2±4.8 and the “mean cumulative score, follow-up period” value [2] was 10.8±10.3.
In the case of C[C@]12CC[C@H](O)CC1=C[C@H](O)[C@@H]1[C@@H]2CC[C@@]2(C)[C@H]1CC[C@]2(C)O [3β,7β,17β-trihydroxy-17α-methylandrost-5-ene], the “reversal of the decrease” value [3] was “normal osteoprotegerin levels at 10 nM”.
With C[C@]12CC[C@H]3[C@@H](CCC4C[C@H](O)CC[C@@]43C)[C@@H]1C[C@H](O)[C@@H]2O (stereo partly drawn) [3α,16β,17β-trihydroxyandrostane] the “number of neutrophils relative to negative control group (set at 100%)” value ([4]; 0.001 mg s.c. 24 h and 1 h before carrageenan-λ) was 95%, the “number of neutrophils relative to negative control group (set at 100%)” value ([4]; 0.01 mg s.c. 24 h and 1 h before carrageenan-λ) was 50% and the “number of neutrophils relative to negative control group (set at 100%)” value ([4]; 0.1 mg s.c. 24 h and 1 h before carrageenan-λ) was 42%.
In the case of CC12CCC(O)CC1=CC(=O)C1C2CCC2(C)C1CCC2(C)O (stereo not drawn) [3β,17β-dihydroxy-7-oxo-17α-methylandrost-5-ene], the “reversal of the decrease” value [3] was “increased osteoprotegerin levels at 100 nM”.
In the case of C[C@]12CC[C@H]3[C@@H](C(=NO)C=C4C[C@@H](O)CC[C@@]43C)[C@@H]1CC[C@@H]2O [androst-5-ene-3β,17β-diol-7-oxime], the “reversal of the decrease” value [3] was “partially reversed the decrease in osteoprotegerin”.
C[C@]12CC[C@H]3[C@@H]([C@H](O)C=C4C[C@@H](O)CC[C@@]43C)[C@@H]1C[C@@H](O)[C@@H]2O [androst-5-ene-3β,7α,16α,17β-tetrol] was tested, and the “reversal of the decrease” value [3] was “near normal osteoprotegerin levels at 10 nM”.
In the case of C#C[C@@]1(O)CC[C@H]2[C@@H]3[C@@H](O)C=C4C[C@@H](O)CC[C@]4(C)[C@H]3CC[C@@]21C [17β-ethynylandrost-5-ene-3β,7β,17α-triol], the “mean cumulative score, treatment period” value [2] was 14.9±17.6, the “mean cumulative score, follow-up period” value [2] was 18.4±20.6 and the EAE incidence ([2]; end of the follow-up period) was 85.7%. For the same compound, the EAE incidence ([2]; end of the treatment period) was 57.1%.
With Cc1cc(C)c(/C=C2\C(=O)Nc3ccccc32)[nH]1 [SU5416, Z-3-[(2,4-dimethylpyrrol-5-yl)methylidenyl]-2-indolinone, reference compound] the “course of EAE compared to vehicle-treated mice” value [2] was “very similar to that observed in the vehicle-treated mice”.
With C[C@]12CC[C@H](O)C[C@@H]1CC[C@@H]1[C@@H]2CC[C@]2(C)[C@@H](O)C(=NO)C[C@@H]12 [5α-androstane-3β,17β-diol-16-oxime] the “course of EAE compared to vehicle-treated mice” value [2] was “very similar to that observed in the vehicle-treated mice”.
C[C@]12CC[C@H](O)C[C@@H]1CC[C@@H]1[C@@H]2CC[C@]2(C)C(=O)[C@H](I)C[C@@H]12 [16α-iodoepiandrosterone] was tested, and the pIC50 [1, 5] was 8.72.
